Drawing on patent US5710174A, “Factor XIIIA inhibitor” (Zymo Genetics, Inc., priority 1995, dated 1998), this text covers inhibition for three compounds.

Read-outs that look alike come from different tables or passages of the source.

The target in one assay is T1, FXIIIa (Homo sapiens, UniProt P00488).
T1 sequence (P00488 39-732 limits assumed): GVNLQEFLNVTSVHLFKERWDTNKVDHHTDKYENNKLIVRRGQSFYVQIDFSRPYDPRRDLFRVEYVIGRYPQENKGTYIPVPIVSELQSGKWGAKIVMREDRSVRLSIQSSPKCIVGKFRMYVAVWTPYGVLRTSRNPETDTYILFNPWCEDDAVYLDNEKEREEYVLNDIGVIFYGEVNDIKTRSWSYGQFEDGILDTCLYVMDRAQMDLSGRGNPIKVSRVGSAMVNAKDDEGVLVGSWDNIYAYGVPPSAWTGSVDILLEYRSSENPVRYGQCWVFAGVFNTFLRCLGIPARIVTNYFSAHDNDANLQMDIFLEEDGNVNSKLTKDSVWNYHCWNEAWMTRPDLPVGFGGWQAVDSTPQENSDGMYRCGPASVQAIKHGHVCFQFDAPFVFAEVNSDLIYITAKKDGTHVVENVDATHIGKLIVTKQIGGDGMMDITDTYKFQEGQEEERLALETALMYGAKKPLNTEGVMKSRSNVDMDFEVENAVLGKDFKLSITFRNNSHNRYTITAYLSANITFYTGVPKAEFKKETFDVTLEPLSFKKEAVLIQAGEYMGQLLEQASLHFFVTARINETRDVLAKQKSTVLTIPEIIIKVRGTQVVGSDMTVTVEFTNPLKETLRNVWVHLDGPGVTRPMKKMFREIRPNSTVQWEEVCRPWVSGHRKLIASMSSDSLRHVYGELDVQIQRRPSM
In words: Fibrinogen clotting assay, FXIIIa (gamma-gamma bands scanned). In kind it is biochemical. Particulars: read-out: % FXIIIa Inhibition. The procedure:
(§1) Clots were formed in 1.5 ml Eppendorf tubes by adding reagents to give the following final assay concentrations in a total volume of 100 μl: 2 mg/ml FXIII-free fibrinogen purified on a rabbit anti-FXIII column (Enzyme Research Labs); 20 mM CaCl2; 1 unit/ml thrombin (bovine, Enzyme Research Labs); and either 1 μg/ml FXIIIa (recombinant human FXIIIa2 (ZymoGenetics)) or 20 μg/ml tTG (Sigma) in 120 mM NaCl plus 25 mM Tris at about pH 7.2. In addition, 10 μl of one of the following was added to each tube in varying concentrations to determine a dose response: iodoacetamide, ZG-1400a or cerulenin. The final reaction volume in each Eppendorf tube was adjusted to 100 μl with 120 mMNaCl plus 25 mM Tris at about pH 7.2.
(§2) A positive (complete cross-linking) control contained fibrinogen, enzyme (FXIIIa or tTG), calcium, and thrombin at final assay concentrations listed above, and was tested in the absence of any inhibitor. A negative (no cross-linking) control contained a solution of FXIII-free fibrinogen, thrombin and 20 μM EDTA [(ethylene dinitrilo)tetraacetic acid, disodium salt, dihydrate (J. T. Baker, Phillipsburg, N.J.)] in the absence of calcium and enzyme. Both positive and negative controls contained a final DMSO concentration of 1%. The FXIIIa-treated clots and their controls were incubated for about 10 min at about 37° C., while the tTG-treated clots and their controls were incubated for about 4 h at about 37° C. After incubation, all of the clots and controls were frozen to quench reactions.
(§3) Frozen clots and controls were boiled for about 3 min, centrifuged at 14,000 RPM for 5 min, and then the supernatant was removed. The clots were resuspended in 100 μl lysis buffer and incubated overnight at 37° C. The lysis buffer Contained 10M urea, 10 mM EDTA, 1% sodium dodecyl sulfate ("SDS"), and 1% 2-mercaptoethanol. After incubation, approximately 5 μl of each sample was brought to a final volume of 20 μl with a reducing sample buffer (containing 125 mM Tris, pH 6.8, 20% glycerol, 4% SDS, 10% 2-mercaptoethanol, and 0.025% bromophenol blue), and applied to 4-15% gradient gels (Integrated Separation Systems, Natick, Mass.) for polyacrylamide electrophoresis (PAGE) at 200 volts for approximately 1 h or until the tracking dye reached the bottom of the gel.
(§4) After staining with Coomassie blue, the alpha, beta, and gamma chains of fibrin were visualized as bands on the gel. The presence of FXIIIa-catalyzed fibrin cross-linking was observed by the appearance of a gamma-gamma dimer, and the disappearance of the monomeric gamma band from the gels. The tTG cross-linking occurs by formation of alpha chain polymers and alpha2 -gamma oligomers. Since there are many bands, they are difficult to visualize. A better indication of tTG cross-linking was the disappearance of the monomeric alpha band from the gels. In addition, the gamma band was reduced, but to a lesser degree than in FXIIIa cross-linked clots.
(§5) The gels were also scanned on a densitometer (Bio Image Whole Band Analyzer, Millipore Corp., Bedford, Mass.). The relative intensity of gamma-gamma bands were scanned and compared for FXIIIa inhibition, while alpha bands were scanned and compared for tTG inhibition. No cross-linkingwas detected in the negative controls containing only FXIII-free fibrinogen thrombin and DMSO. […] The inhibition results obtained from PAGE of samples prepared as described above, and containing ZG-1400a at 100 μM and 10 μM, or cerulenin or iodoacetamide at 1 mM, 100 μM, and 10 μM, are shown in Table 2.

The target in another assay is T2, tTG (Cavia cutleri, UniProt P08587).
T2 construct: purchased Sigma
T2 sequence (P08587 1-690): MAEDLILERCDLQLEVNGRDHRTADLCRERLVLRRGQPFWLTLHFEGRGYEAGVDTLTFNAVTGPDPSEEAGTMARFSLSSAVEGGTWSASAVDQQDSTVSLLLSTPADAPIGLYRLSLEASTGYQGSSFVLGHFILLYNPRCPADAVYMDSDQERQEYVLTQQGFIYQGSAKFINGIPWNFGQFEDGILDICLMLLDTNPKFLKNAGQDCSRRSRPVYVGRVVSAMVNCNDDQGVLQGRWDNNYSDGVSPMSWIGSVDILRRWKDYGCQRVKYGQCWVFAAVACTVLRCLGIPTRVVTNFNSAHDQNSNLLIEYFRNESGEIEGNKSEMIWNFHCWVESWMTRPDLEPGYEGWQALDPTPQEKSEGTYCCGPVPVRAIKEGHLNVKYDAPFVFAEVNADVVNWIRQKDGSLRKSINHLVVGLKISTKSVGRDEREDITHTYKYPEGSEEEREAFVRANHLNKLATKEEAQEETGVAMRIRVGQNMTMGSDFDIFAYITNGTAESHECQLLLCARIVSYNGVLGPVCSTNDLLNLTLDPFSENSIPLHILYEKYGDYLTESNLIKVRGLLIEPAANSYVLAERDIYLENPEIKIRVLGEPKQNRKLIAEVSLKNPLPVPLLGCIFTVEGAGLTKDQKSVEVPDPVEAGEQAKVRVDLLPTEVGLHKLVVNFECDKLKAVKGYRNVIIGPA
In words: Fibrinogen clotting assay, tTG (alpha bands scanned). The settings on record: read-out: % tTG Inhibition. In kind it is biochemical. The procedure:
as §1, §2, §3, §4, §5

Setting [1] is: 10 μM, gamma-gamma bands, densitometer.
Where [2] appears, read: 100 μM, gamma-gamma bands, densitometer.
The mark [3] stands for this setting: 10 μM, alpha bands, densitometer.
The mark [4] stands for this setting: 100 μM, alpha bands, densitometer.

For the compound `NC(=O)CI` [Iodoacetamide, iodoacetamide], on FXIIIa, the inhibition at 10 µM is 66%, the inhibition at 100 µM is 100% and the inhibition at 1000 µM was determined as 100%. On tTG, the inhibition at 10 µM was found to be 72%, the inhibition at 100 µM turned out to be 68% and the inhibition at 1000 µM was 60%.

`C[C@@H]1CCC/C=C\C(=O)Cc2cc(O)cc(O)c2C(=O)O1` [ZG-1400, R(-) enantiomer of cis-resorcylide]: the inhibition at 10 µM at FXIIIa (setting [1]) was found to be 66%; at tTG (setting [3]) it was 80%. Moreover, the inhibition at 100 µM at FXIIIa (setting [2]) is 100%; at tTG (setting [4]), 83%.

Take `CC=CCC=CCCC(=O)C1OC1C(N)=O` (stereo not shown) [Cerulenin, 2,3-epoxy-4-oxo-7,10-dodecadienamide]: the inhibition at 10 µM at FXIIIa (setting [1]) stood at 8%; on tTG (setting [3]), 30%. For the same compound, the inhibition at 100 µM is 38% on FXIIIa (setting [2]) and 79% on tTG (setting [4]). The inhibition at 1000 µM on FXIIIa (1 mM, gamma-gamma bands, densitometer) worked out at 100%; on tTG (1 mM, alpha bands, densitometer), 94%.

Usually inhibition stands for the change of the read-out against control, counted positive when it falls.
